Measured values reported in ChEMBL document CHEMBL1938230, “6-Position optimization of tricyclic 4-quinolone-based inhibitors of glycogen synthase kinase-3β: discovery of nitrile derivatives with picomolar potency” (Bioorg Med Chem Lett, 2012).
≈ marks a conversion by molar mass, not a printed value.

Assays:
[1] = biological target: Phosphatidylinositol 4,5-bisphosphate 3-kinase catalytic subunit gamma isoform (Homo sapiens) (UniProt P48736); assay: Inhibition of human PIK3CG in HL-60 cells lysate assessed as reduction of labeling of acyl-phosphate ATP probe at 100 nM; format: cell-free
Phosphatidylinositol 4,5-bisphosphate 3-kinase catalytic subunit gamma isoform (Homo sapiens), sequence (P48736 whole entry, looked up, canonical isoform): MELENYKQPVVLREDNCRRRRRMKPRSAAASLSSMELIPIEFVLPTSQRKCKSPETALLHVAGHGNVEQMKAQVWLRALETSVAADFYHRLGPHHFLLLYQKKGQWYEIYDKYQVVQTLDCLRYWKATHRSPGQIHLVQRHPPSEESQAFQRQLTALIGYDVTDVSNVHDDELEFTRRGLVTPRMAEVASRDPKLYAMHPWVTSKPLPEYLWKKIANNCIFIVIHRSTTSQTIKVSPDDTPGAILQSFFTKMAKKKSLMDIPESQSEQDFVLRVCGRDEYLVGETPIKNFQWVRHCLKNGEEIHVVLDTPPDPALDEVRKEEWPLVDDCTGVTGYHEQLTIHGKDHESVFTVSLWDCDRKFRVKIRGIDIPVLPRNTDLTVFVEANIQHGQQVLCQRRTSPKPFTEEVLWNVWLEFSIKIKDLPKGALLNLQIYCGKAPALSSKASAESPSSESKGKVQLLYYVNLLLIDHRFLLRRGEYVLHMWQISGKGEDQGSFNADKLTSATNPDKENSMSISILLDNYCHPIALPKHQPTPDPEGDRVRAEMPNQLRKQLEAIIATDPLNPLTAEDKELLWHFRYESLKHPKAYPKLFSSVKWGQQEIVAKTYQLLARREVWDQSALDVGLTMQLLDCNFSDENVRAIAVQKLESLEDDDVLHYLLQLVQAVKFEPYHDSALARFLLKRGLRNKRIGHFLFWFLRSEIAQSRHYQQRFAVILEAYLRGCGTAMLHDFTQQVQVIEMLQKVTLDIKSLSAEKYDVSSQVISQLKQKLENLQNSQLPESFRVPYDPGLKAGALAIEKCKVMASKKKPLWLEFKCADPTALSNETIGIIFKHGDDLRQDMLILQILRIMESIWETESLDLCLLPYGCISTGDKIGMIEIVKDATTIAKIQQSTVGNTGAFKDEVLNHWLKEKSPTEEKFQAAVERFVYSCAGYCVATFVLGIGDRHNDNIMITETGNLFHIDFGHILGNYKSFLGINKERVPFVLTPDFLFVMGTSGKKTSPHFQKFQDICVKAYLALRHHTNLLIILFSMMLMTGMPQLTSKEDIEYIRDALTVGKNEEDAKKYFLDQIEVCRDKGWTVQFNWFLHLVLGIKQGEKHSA

[2] = biological target: T1, Aurora kinase A (Homo sapiens) (UniProt O14965); assay: Inhibition of human AurA in HL-60 cells lysate assessed as reduction of labeling of acyl-phosphate ATP probe at 100 nM; format: cell-free
T1 sequence (whole entry): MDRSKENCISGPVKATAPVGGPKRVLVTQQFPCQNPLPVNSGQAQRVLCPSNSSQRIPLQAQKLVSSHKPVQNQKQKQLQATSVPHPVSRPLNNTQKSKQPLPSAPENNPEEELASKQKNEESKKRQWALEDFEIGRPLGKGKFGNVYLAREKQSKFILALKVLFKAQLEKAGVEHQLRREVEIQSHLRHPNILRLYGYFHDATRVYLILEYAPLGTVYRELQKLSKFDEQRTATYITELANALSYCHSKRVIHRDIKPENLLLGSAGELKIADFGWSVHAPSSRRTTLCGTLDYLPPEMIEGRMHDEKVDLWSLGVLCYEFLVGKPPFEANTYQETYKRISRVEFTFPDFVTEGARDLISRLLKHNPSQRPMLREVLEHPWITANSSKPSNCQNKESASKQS

[3] = biological target: T2, Serine/threonine-protein kinase Nek9 (Homo sapiens) (UniProt Q8TD19); assay: Inhibition of human NEK9 in HL-60 cells lysate assessed as reduction of labeling of acyl-phosphate ATP probe at 100 nM; format: cell-free
T2 sequence (whole entry): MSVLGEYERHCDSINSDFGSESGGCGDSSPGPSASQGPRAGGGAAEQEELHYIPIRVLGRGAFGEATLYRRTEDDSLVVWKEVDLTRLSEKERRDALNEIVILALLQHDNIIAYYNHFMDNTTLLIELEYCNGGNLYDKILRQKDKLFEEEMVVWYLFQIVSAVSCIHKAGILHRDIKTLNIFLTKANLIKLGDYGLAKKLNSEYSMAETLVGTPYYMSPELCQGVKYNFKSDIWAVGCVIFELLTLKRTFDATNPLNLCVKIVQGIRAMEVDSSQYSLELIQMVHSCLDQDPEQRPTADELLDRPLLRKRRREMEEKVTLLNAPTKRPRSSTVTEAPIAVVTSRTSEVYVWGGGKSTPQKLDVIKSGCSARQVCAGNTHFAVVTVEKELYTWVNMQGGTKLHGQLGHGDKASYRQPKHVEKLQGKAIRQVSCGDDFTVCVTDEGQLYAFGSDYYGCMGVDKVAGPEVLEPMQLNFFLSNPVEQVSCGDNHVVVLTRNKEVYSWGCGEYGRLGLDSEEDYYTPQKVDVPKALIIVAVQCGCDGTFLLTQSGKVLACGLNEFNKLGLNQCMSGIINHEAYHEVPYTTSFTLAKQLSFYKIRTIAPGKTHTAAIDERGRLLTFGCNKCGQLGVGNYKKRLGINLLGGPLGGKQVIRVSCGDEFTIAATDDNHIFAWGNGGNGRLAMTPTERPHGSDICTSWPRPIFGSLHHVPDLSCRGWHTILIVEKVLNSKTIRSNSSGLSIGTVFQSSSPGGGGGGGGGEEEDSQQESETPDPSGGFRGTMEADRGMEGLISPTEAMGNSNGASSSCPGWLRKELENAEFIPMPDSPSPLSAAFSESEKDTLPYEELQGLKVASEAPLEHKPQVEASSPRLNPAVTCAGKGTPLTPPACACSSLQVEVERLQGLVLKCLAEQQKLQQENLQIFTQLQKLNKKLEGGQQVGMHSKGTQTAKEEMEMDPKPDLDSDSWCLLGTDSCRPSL

[4] = biological target: Wee1-like protein kinase (Homo sapiens) (UniProt P30291); assay: Inhibition of human Wee1 in HL-60 cells lysate assessed as reduction of labeling of acyl-phosphate ATP probe at 100 nM; format: cell-free
Wee1-like protein kinase (Homo sapiens), sequence (P30291 whole entry, looked up): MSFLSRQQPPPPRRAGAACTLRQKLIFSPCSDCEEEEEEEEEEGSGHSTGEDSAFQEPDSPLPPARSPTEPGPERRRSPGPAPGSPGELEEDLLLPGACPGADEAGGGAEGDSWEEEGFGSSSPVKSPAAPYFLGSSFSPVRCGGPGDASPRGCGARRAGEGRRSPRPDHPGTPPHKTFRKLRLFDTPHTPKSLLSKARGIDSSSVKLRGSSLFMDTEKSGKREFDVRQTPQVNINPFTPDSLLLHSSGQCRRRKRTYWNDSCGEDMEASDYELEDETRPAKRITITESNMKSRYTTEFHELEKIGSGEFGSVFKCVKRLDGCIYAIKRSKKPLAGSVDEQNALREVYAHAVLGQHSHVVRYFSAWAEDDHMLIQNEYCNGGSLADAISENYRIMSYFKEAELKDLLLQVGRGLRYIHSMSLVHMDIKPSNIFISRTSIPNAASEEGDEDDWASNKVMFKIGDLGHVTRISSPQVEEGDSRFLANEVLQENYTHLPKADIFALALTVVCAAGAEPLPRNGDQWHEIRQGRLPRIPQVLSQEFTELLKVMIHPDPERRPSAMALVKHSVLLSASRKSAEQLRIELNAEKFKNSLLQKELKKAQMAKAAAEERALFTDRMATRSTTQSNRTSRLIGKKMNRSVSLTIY

[5] = biological target: T3, Mitogen-activated protein kinase kinase kinase 3 (Homo sapiens) (UniProt Q99759); assay: Inhibition of human MAP3K3 in HL-60 cells lysate assessed as reduction of labeling of acyl-phosphate ATP probe at 100 nM; format: cell-free
T3 sequence (whole entry): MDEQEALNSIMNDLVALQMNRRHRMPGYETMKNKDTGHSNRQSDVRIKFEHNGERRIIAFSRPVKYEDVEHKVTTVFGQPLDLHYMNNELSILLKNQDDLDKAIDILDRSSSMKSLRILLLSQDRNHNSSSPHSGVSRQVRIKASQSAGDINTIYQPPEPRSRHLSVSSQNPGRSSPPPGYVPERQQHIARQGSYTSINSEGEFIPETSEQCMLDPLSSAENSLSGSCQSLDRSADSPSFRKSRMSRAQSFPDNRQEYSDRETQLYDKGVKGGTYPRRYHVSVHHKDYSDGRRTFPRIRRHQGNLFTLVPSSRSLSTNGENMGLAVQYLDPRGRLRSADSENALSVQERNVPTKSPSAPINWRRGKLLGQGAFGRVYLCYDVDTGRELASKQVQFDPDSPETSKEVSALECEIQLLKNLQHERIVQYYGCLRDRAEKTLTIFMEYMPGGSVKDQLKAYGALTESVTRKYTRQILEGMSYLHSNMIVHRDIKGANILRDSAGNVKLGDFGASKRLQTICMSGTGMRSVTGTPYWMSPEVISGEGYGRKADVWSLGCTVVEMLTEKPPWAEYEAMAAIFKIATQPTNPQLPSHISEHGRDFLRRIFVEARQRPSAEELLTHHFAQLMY

[6] = biological target: T4, Serine/threonine-protein kinase 4 (Homo sapiens) (UniProt Q13043); assay: Inhibition of human MST1 in HL-60 cells lysate assessed as reduction of labeling of acyl-phosphate ATP probe at 100 nM; format: cell-free
T4 sequence (whole entry): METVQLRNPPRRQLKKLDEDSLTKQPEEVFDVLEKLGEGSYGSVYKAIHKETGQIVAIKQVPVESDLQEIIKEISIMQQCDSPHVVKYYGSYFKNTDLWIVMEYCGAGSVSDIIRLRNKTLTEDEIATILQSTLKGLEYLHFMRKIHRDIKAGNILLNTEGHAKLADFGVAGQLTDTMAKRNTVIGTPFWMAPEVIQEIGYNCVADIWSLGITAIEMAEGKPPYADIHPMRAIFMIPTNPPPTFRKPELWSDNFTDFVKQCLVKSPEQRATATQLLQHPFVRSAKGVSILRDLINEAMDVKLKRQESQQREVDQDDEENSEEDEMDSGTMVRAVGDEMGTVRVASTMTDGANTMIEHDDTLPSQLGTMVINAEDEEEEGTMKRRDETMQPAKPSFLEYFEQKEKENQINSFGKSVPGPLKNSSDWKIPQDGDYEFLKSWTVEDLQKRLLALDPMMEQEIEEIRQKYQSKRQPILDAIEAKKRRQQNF

Staphylococcus aureus = assay: Antibacterial activity against Staphylococcus aureus Smith; format: ADME, organism-based

Row | inhibition [1] | inhibition [2] | inhibition [4] | inhibition [5] | inhibition [6] | MIC (Staphylococcus aureus) | SMILES | inhibition [3]
1 | < 35% | < 35% | < 35% | < 35% | < 35% | > 298 µM | C[C@H]1COc2c(NCCCc3ccccn3)c(F)c(N)c3c(=O)c(C#N)cn1c23 | < 35%
2 | < 35% | < 35% | < 35% | < 35% | < 35% | 2 µM (≈ 0.803 µg/mL) | C[C@H]1COc2c(NCCCn3cccn3)c(F)c(N)c3c(=O)c(C(=O)O)cn1c23 | < 35%
3 | < 35% | < 35% | < 35% | < 35% | < 35% | 2 µM (≈ 0.825 µg/mL) | C[C@H]1COc2c(NCCCc3ccccn3)c(F)c(N)c3c(=O)c(C(=O)O)cn1c23 | < 35%
4 | < 35% | < 35% | < 35% | < 35% | < 35% | > 306 µM | C[C@H]1COc2c(NCCCn3cccn3)c(F)c(N)c3c(=O)c(C#N)cn1c23 | < 35%
